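Five concentrations, 48 hours, 96-well plates. At the GI50, growth is halved.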 Calls of active or inactive are those of the source. No stated cut-off is given here; in the data, active = GI50 up to about 1.1 µM and inactive = higher.
Legend:
Assay in all cases: NCI anticancer screen, dose series, 48 h
NCI-H522 = tested on: NCI-H522
KM-20L2 = tested on: KM-20L2
SK-MEL-28 = tested on: SK-MEL-28
SF-268 = tested on: SF-268
SK-MEL-2 = tested on: SK-MEL-2
HOP-92 = tested on: HOP-92
DMS-273 = tested on: DMS-273
786-0 = tested on: 786-0
CCRF-CEM = tested on: CCRF-CEM
SNB-75 = tested on: SNB-75
DMS-114 = tested on: DMS-114
RPMI-8226 = tested on: RPMI-8226
ACHN = tested on: ACHN
IGROV-1 = tested on: IGROV-1
EKVX = tested on: EKVX
UACC-257 = tested on: UACC-257
OVCAR-3 = tested on: OVCAR-3
SN12C = tested on: SN12C
RXF 393 = tested on: RXF 393
OVCAR-4 = tested on: OVCAR-4
SK-OV-3 = tested on: SK-OV-3
A549 = tested on: A549
LOX IMVI = tested on: LOX IMVI
OVCAR-8 = tested on: OVCAR-8
SNB-19 = tested on: SNB-19
SK-MEL-5 = tested on: SK-MEL-5
DLD-1 = tested on: DLD-1
KM12 = tested on: KM12
XF498 = tested on: XF498
MOLT-4 = tested on: MOLT-4
SW-620 = tested on: SW-620
SF-295 = tested on: SF-295
UO-31 = tested on: UO-31
Malme-3M = tested on: Malme-3M
UACC-62 = tested on: UACC-62
COLO 205 = tested on: COLO 205
SNB-78 = tested on: SNB-78
HCC 2998 = tested on: HCC 2998
K562 = tested on: K562
TK-10 = tested on: TK-10
HOP-62 = tested on: HOP-62
CAKI-1 = tested on: CAKI-1
M14 = tested on: M14
HL-60 = tested on: HL-60
NCI-H23 = tested on: NCI-H23
OVCAR-5 = tested on: OVCAR-5
HCT-15 = tested on: HCT-15
LXFL 529 = tested on: LXFL 529
NCI-H460 = tested on: NCI-H460
M19-MEL = tested on: M19-MEL
SR = tested on: SR
U-251 = tested on: U-251
HCT-116 = tested on: HCT-116
HOP-18 = tested on: HOP-18
HT-29 = tested on: HT-29
NCI-H226 = tested on: NCI-H226
SF-539 = tested on: SF-539

For COc1cc2c(cc1OC)NC(=O)NC(Cc1ccc3c(c1)OCO3)CC2 (stereo not drawn), the GI50 (NCI-H522) was 29 µM (inactive), the GI50 (KM-20L2) was > 100 µM (inactive) and the GI50 (SK-MEL-28) was > 100 µM (inactive). For the same molecule, the GI50 (SF-268) was > 100 µM (inactive), the GI50 (SK-MEL-2) was > 100 µM (inactive) and the GI50 (HOP-92) was 30.2 µM (inactive). The GI50 (DMS-273) was > 100 µM (inactive), the GI50 (786-0) was > 100 µM (inactive) and the GI50 (CCRF-CEM) was > 100 µM (inactive). For the same molecule, the GI50 (SNB-75) was 24 µM (inactive), the GI50 (DMS-114) was > 100 µM (inactive) and the GI50 (RPMI-8226) was 83.9 µM (inactive). The GI50 (ACHN) was > 100 µM (inactive), the GI50 (IGROV-1) was > 100 µM (inactive) and the GI50 (EKVX) was > 100 µM (inactive). For the same molecule, the GI50 (UACC-257) was > 100 µM (inactive), the GI50 (OVCAR-3) was > 100 µM (inactive) and the GI50 (SN12C) was > 100 µM (inactive). For the same molecule, the GI50 (RXF 393) was > 100 µM (inactive), the GI50 (OVCAR-4) was > 100 µM (inactive) and the GI50 (SK-OV-3) was > 100 µM (inactive). For the same molecule, the GI50 (A549) was > 100 µM (inactive), the GI50 (LOX IMVI) was > 100 µM (inactive) and the GI50 (OVCAR-8) was > 100 µM (inactive). The GI50 (SNB-19) was > 100 µM (inactive), the GI50 (SK-MEL-5) was > 100 µM (inactive) and the GI50 (DLD-1) was > 100 µM (inactive). The GI50 (KM12) was > 100 µM (inactive), the GI50 (XF498) was > 100 µM (inactive) and the GI50 (MOLT-4) was > 100 µM (inactive). For the same molecule, the GI50 (SW-620) was > 100 µM (inactive), the GI50 (SF-295) was 84.5 µM (inactive) and the GI50 (UO-31) was 76.9 µM (inactive). The GI50 (Malme-3M) was > 100 µM (inactive), the GI50 (UACC-62) was > 100 µM (inactive) and the GI50 (COLO 205) was > 100 µM (inactive). For the same molecule, the GI50 (SNB-78) was > 100 µM (inactive), the GI50 (HCC 2998) was > 100 µM (inactive) and the GI50 (K562) was > 100 µM (inactive). The GI50 (TK-10) was > 100 µM (inactive), the GI50 (HOP-62) was 51.5 µM (inactive) and the GI50 (CAKI-1) was > 100 µM (inactive). For the same molecule, the GI50 (M14) was > 100 µM (inactive), the GI50 (HL-60) was > 100 µM (inactive) and the GI50 (NCI-H23) was > 100 µM (inactive). The GI50 (OVCAR-5) was > 100 µM (inactive), the GI50 (HCT-15) was > 100 µM and the GI50 (LXFL 529) was > 100 µM (inactive). For the same molecule, the GI50 (NCI-H460) was > 100 µM (inactive) and the GI50 (M19-MEL) was > 100 µM (inactive).
With COc1cc(C2C(Cl)C(=O)N2NC(=O)c2ccc(NC(C)=O)cc2)cc(Br)c1O (stereo not drawn) the GI50 (NCI-H522) was > 100 µM (inactive), the GI50 (SK-MEL-28) was > 100 µM (inactive) and the GI50 (SF-268) was > 100 µM (inactive). The GI50 (SK-MEL-2) was > 100 µM (inactive), the GI50 (HOP-92) was > 100 µM (inactive) and the GI50 (CCRF-CEM) was > 100 µM (inactive). The GI50 (SNB-75) was > 100 µM (inactive), the GI50 (RPMI-8226) was > 100 µM (inactive) and the GI50 (ACHN) was > 100 µM (inactive). For the same molecule, the GI50 (IGROV-1) was > 100 µM (inactive), the GI50 (UACC-257) was > 100 µM (inactive) and the GI50 (OVCAR-3) was > 100 µM (inactive). The GI50 (SR) was > 100 µM (inactive), the GI50 (SK-OV-3) was > 100 µM (inactive) and the GI50 (A549) was > 100 µM (inactive). The GI50 (U-251) was > 100 µM (inactive), the GI50 (OVCAR-8) was > 100 µM (inactive) and the GI50 (SNB-19) was > 100 µM (inactive). For the same molecule, the GI50 (SK-MEL-5) was > 100 µM (inactive), the GI50 (DLD-1) was > 100 µM (inactive) and the GI50 (KM12) was > 100 µM (inactive). For the same molecule, the GI50 (MOLT-4) was > 100 µM (inactive), the GI50 (SW-620) was > 100 µM (inactive) and the GI50 (SF-295) was > 100 µM (inactive). For the same molecule, the GI50 (UO-31) was > 100 µM (inactive), the GI50 (HCT-116) was > 100 µM (inactive) and the GI50 (HOP-18) was > 100 µM (inactive). The GI50 (Malme-3M) was > 100 µM (inactive), the GI50 (HT-29) was > 100 µM (inactive) and the GI50 (UACC-62) was > 100 µM (inactive). For the same molecule, the GI50 (COLO 205) was > 100 µM (inactive), the GI50 (HCC 2998) was > 100 µM (inactive) and the GI50 (K562) was > 100 µM (inactive). For the same molecule, the GI50 (TK-10) was > 100 µM (inactive), the GI50 (HOP-62) was > 100 µM (inactive) and the GI50 (NCI-H226) was > 100 µM (inactive). For the same molecule, the GI50 (SF-539) was > 100 µM (inactive), the GI50 (HL-60) was > 100 µM (inactive) and the GI50 (NCI-H23) was > 100 µM (inactive). The GI50 (OVCAR-5) was > 100 µM (inactive), the GI50 (LXFL 529) was > 100 µM (inactive) and the GI50 (NCI-H460) was > 100 µM (inactive). The GI50 (M19-MEL) was > 100 µM (inactive).

Reference: ChEMBL document CHEMBL1201862, “PubChem BioAssay data set” (2004)
